In patent publication US10265329B2, “Altering steroid metabolism for treatment of steroid-dependent disease” (THE CLEVELAND CLINIC FOUNDATION, priority 2015, dated 2019):

Legend:
3βHSD = target: T1, 3βHSD (Homo sapiens, UniProt P14060); assay: Xenograft metabolism: [3H]-DHEA to AD in minced xenograft tumors; details: LNCaP and VCaP xenografts, 0.1-10 μM
T1 construct: endogenous in cells; host or cells: LNCaP, VCaP
T1 sequence (P14060 2-373 limits assumed): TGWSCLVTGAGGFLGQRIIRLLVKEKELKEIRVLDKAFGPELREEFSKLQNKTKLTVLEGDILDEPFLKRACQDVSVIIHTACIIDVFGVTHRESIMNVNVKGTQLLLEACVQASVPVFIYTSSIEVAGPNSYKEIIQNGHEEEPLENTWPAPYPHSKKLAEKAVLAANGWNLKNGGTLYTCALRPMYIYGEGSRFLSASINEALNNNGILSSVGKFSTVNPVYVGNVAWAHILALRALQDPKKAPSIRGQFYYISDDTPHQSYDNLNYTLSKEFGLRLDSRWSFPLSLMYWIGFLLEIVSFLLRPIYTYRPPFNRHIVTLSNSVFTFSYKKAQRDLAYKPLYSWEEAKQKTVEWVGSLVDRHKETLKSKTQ
Method: Cell Line Metabolism: Cells were seeded and incubated in 12-well plates with 0.2 million cells/well for ˜24 h and then incubated with a mixture of radioactive ([^3H]-labeled) and non-radioactive androgens (final concentration, 100 nM; ˜1,000,000 cpm/well; PerkinElmer, Waltham, Mass.) at 37° C. Aliquots of medium were collected at the indicated times. Collected medium was treated with 1,000 units of β-glucuronidase (Helix pomatia; Sigma-Aldrich) at 65° C. for 2 h, extracted with 860 μL ethyl acetate:isooctane (1:1), and concentrated under nitrogen gas. Xenograft Metabolism: 10^7 LNCaP or VCaP cells were injected subcutaneously with Matrigel into surgically orchiectomized NSG mice that were implanted with 5 mg 90-day sustained-release DHEA pellets (Innovative Research of American, Sarasota, Fla.). […] Each xenograft was analyzed in triplicate in at least three independent experiments. […]
Dried samples were reconstituted in 50% methanol and injected into the HPLC. […] Alternatively, dried samples were applied to plastic-backed silica gel plates and separated by thin-layer chromatography (TLC) using a mobile phase of 3:1 chloroform:ethyl acetate, followed by exposure of the plates to a phosphorimager screen and quantitated with a Storm model 860 phosphorimager (Applied Biosystems, Foster City, Calif.). […]

VCaP xenografts = assay: VCaP xenograft progression in orchiectomized mice with DHEA pellet; type: in vivo; details: 0.5 mmol/kg/d i.p.; compared to the Abi acetate group, P=0.011
Method: Male NSG mice, 6 to 8 weeks of age were obtained from the Cleveland Clinic Biological Resources Unit facility. All mouse studies were conducted under a protocol approved by the Cleveland Clinic Institutional Animal Care and Use Committee. Sample size was determined based on our prior studies of steroidogenesis inhibition in xenograft models of CRPC. Chang et al., Proc Natl Acad Sci USA., 108:13728-13733 (2011). Criteria for progression were determined based on similar criteria that are utilized for clinical progression. Mice were surgically orchiectomized and implanted with a 5 mg 90-day sustained-release DHEA pellet (Innovative Research of America) to mimic CRPC in the context of human adrenal physiology. Two days later, 10^7 VCaP or C4-2 cells were injected subcutaneously with matrigel. Once tumors reached 300 mm^3 (length×width×height×0.52), mice were arbitrarily (but not strictly randomized) assigned to vehicle (n=9 or 10 mice for VCaP and C4-2 respectively), Abi acetate (n=10 mice for both cell lines), D4A (n=10 mice for both cell lines) or enzalutamide (n=11 for C4-2) treatment groups. […] Tumor volume was measured daily, and time to increase in tumor volume by 20% was determined. […] The significance of the difference between treatment groups was assessed by Kaplan-Meier survival analysis using a log-rank test in SigmaStat 3.5.

C[C@]12CCC(=O)C=C1CC[C@@H]1[C@@H]2CC[C@]2(C)C(c3cccnc3)=CC[C@@H]12 [Compound D4A, 17-(3-Pyridyl)androsta-4,16-dien-3-one]
potency relative to Abi in blocking conversion from DHEA by 3βHSD to AD (3βHSD): 10 fold
time to tumor progression (>20% increase in tumor volume) (VCaP xenografts): significantly delayed
